From patent publication US9029373B2, “Kinase inhibitors” (Chiesi Farmaceutici S.p.A., priority 2011, dated 2015) come the findings set out here.

pIC50: −log10 of the molar value. Where a name gives a salt, the structure may show the parent alone. Some results are limits rather than exact numbers.

In assay [1] the test system is LPS-stimulated PBMC TNFα release. As to the kind of experiment: LPS-stimulated PBMC TNFα release assay. Particulars: human PBMCs, LPS 10 ng/ml, 18 h, TNFα by ELISA, at least three separate experiments, read-out: p38α inhibition (IC50 values), inhibition of TNFα release. Type of assay: cell-based. How it is done: LPS-Stimulated PBMC TNFα Release Assay.
Peripheral Blood Mononuclear Cells (PBMCs) were isolated from healthy human volunteer blood using a standard density gradient centrifugation technique. Citrated blood was placed onto Histopaque™ and centrifuged. The PBMCs were removed from the density gradient interface and washed in phosphate buffered saline (PBS). The PBMCs were suspended in RPMI 1640 medium (without serum), dispensed into a 96-well plate and incubated at 37° C. for 3 h in a humidified incubator. After incubation, the medium was replaced (with medium containing 1% foetal bovine serum), and the plate incubated at 37° C., for 1 h, in the presence of test compound or the appropriate vehicle. LPS (10 ng/ml), or an appropriate vehicle control, was then added to the cells, and the plate returned to the incubator for 18 h. Cell-free supernatants were removed and assayed for TNFα levels using an ELISA kit from R&D Systems.
A dose response curve to each test compound was performed and the effect of compound in each experiment was expressed as a percentage inhibition of the control TNFα release. Dose response curves were plotted and compound potency (IC50) was determined. Compounds were tested in at least three separate experiments.
For orientation: An ELISA detects its analyte on a solid surface through an enzyme-linked reagent.

Assay [2] addresses T1, p38alpha (Homo sapiens, UniProt Q16539).
T1 construct: purchased Invitrogen PV3304
As to the kind of experiment: P38alpha enzyme inhibition assay (Alphascreen kinase activity assay). Type of assay: biochemical. Particulars: 100 pM p38alpha, 250 μM ATP, 2 hours pre-incubation at 25° C., ATF-2 fusion protein substrate; read-out: p38α inhibition (IC50 values). As to the method:
P38alpha Enzyme Inhibition Assay.
The inhibitory activity of compounds was determined using an Alphascreen® (Perkin Elmer) based kinase activity assay. Kinase reactions consisted of 25 mM HEPES pH 7.5, 10 mM MgCl2, 100 μM Na3VO4, 2 mM DTT, 0.05 mg/ml Tween 20, 100 pM p38alpha (Invitrogen, PV3304), 1% DMSO and 0.3 μg/ml ATF-2 fusion protein (New England Biolabs, 9224). Compounds were incubated under these conditions for 2 hours, at 25° C., prior to the initiation of the kinase activity by the addition of the 250 μM ATP. Reaction volumes were 20 uL. After 1 hr at 25° C. reactions were stopped by the adding 10 uL of 25 mM HEPES pH 7.5 containing 62.5 mM EDTA, 0.05% Triton X-100, 10% BSA and 0.83 ng/uL anti-phospho-ATF2 antibody (Abeam, ab28812). Detection was performed by measuring luminescence following the addition of Alphascreen Donor beads (Perkin Elmer 6765300) and Protein A Alphascreen Acceptor beads (Perkin Elmer 6760137), both at a final concentration of 20 ug/ml. IC50 values were determined from concentration-response curves.
In general terms: Alpha assays give light when donor and acceptor beads are brought close together.

T1 sequence (Q16539 whole entry): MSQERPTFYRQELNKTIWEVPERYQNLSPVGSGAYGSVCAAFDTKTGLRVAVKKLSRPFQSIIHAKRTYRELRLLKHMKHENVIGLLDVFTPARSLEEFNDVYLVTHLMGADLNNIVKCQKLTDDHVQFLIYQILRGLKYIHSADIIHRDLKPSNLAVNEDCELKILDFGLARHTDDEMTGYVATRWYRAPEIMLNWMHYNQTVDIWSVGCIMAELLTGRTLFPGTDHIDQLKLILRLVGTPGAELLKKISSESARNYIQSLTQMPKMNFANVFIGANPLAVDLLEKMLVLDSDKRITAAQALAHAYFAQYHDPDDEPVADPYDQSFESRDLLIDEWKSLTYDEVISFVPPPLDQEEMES

`CC(C)c1nnc2ccc(O[C@@H]3CC[C@H](NC(=O)Nc4cc(C(C)(C)C)nn4-c4cccc(CN5CCC(F)(F)CC5)c4)c4ccccc43)cn12` [Example 12, 1-{5-tert-Butyl-2-[3-(4,4-difluoro-piperidin-1-ylmethyl)-phenyl]-2H-pyrazol-3-yl}-3-[(1S,4R)-4-(3-isopropyl-[1,2,4]triazolo[4,3-a]pyridin-6-yloxy)-1,2,3,4-tetrahydro-naphthalen-1-yl]-urea]: the values for the pIC50 in assay [1] and in assay [2] were 7.00 to 8.00 and > 8.00, respectively.

`CC(C)c1nnc2ccc(O[C@H]3CC[C@H](NC(=O)Nc4cc(C(C)(C)C)nn4-c4ccc(C#N)cc4)c4ccccc43)cn12` [Example 14, 1-[5-tert-Butyl-2-(4-cyano-phenyl)-2H-pyrazol-3-yl]-3-[(1S,4S)-4-(3-isopropyl-[1,2,4]triazolo[4,3-a]pyridin-6-yloxy)-1,2,3,4-tetrahydro-naphthalen-1-yl]-urea]: the results for the pIC50 in assay [1] and in assay [2] were > 8.00 and 7.00 to 8.00, respectively.

For `CC(C)c1nnc2ccc(O[C@H]3CC[C@H](NC(=O)Nc4cc(C(C)(C)C)nn4-c4ccc(CO)cc4)c4ccccc43)cn12` [Example 15, 1-[5-tert-Butyl-2-(4-hydroxymethyl-phenyl)-2H-pyrazol-3-yl]-3-[(1S,4S)-4-(3-isopropyl-[1,2,4]triazolo[4,3-a]pyridin-6-yloxy)-1,2,3,4-tetrahydro-naphthalen-1-yl]-urea], the pIC50 in assay [1] and in assay [2] was > 8.00 in each case.

`CC(C)c1nnc2ccc(O[C@@H]3CC[C@H](NC(=O)Nc4cc(C(C)(C)C)nn4C4CCN(C)CC4)c4ccccc43)cn12` [Example 17, 1-[5-tert-Butyl-2-(1-methyl-piperidin-4-yl)-2H-pyrazol-3-yl]-3-[(1S,4R)-4-(3-isopropyl-[1,2,4]triazolo[4,3-a]pyridin-6-yloxy)-1,2,3,4-tetrahydro-naphthalen-1-yl]-urea]: the figures for the pIC50 in assay [1] and in assay [2] were 6.00 to 7.00 and > 8.00, respectively.

In the case of `CC(C)c1nnc2ccc(O[C@@H]3CC[C@H](NC(=O)Nc4cc(C(C)(C)C)nn4CCN4CCOCC4)c4ccccc43)cn12` [Example 18, 1-[5-tert-Butyl-2-(2-morpholin-4-yl-ethyl)-2H-pyrazol-3-yl]-3-[(1S,4R)-4-(3-isopropyl[1,2,4]triazolo[4,3-a]pyridin-6-yloxy)-1,2,3,4-tetrahydro-naphthalen-1-yl]-urea], the results for the pIC50 in assay [1] and in assay [2] were 7.00 to 8.00 and > 8.00, respectively.

For `CC(C)c1nnc2ccc(O[C@@H]3CC[C@H](NC(=O)Nc4cc(C(C)(C)C)nn4C)c4cc(F)ccc43)cn12` [Example 19, 1-(5-tert-Butyl-2-methyl-2H-pyrazol-3-yl)-3-[(1S,4R)-7-fluoro-4-(3-isopropyl-[1,2,4]triazolo[4,3-a]pyridin-6-yloxy)-1,2,3,4-tetrahydro-naphthalen-1-yl]-urea], the pIC50 (usually the negative decadic logarithm of the IC50, by convention in mol/L) in assay [1] was 7.00 to 8.00; in assay [2], > 8.00.

On to `CC(C)c1nnc2ccc(O[C@@H]3CC[C@H](NC(=O)Nc4cc(C(C)(C)C)nn4-c4cccc(OCCN5CCC(O)CC5)c4)c4ccccc43)cn12` [Example 22, 1-(5-tert-Butyl-2-{3-[2-(4-hydroxy-piperidin-1-yl)-ethoxy]-phenyl}-2H-pyrazol-3-yl)-3-[(1S,4R)-4-(3-isopropyl-[1,2,4]triazolo[4,3-a]pyridin-6-yloxy)-1,2,3,4-tetrahydro-naphthalen-1-yl]-urea formate salt], for which the pIC50 is 7.00 to 8.00 in assay [1] and > 8.00 in assay [2].

With `CC(C)c1nnc2ccc(O[C@@H]3CC[C@H](NC(=O)Nc4cc(C(C)(C)C)nn4-c4cccc(N5CCOCC5)c4)c4ccccc43)cn12` [Example 23, 1-[5-tert-Butyl-2-(3-morpholin-4-yl-phenyl)-2H-pyrazol-3-yl]-3-[(1S,4R)-4-(3-isopropyl-[1,2,4]triazolo[4,3-a]pyridin-6-yloxy)-1,2,3,4-tetrahydro-naphthalen-1-yl]-urea], the pIC50 in assay [1] and in assay [2] was > 8.00 each time.

With `CC(C)(C)c1cc(NC(=O)N[C@H]2CC[C@@H](Oc3ccc4nnc(-c5c(Cl)cccc5Cl)n4c3)c3ccccc32)n(CCO)n1` [Example 26, 1-[5-tert-Butyl-2-(2-hydroxy-ethyl)-2H-pyrazol-3-yl]-3-{(1S,4R)-4-[3-(2,6-dichloro-phenyl)-[1,2,4]triazolo[4,3-a]pyridin-6-yloxy]-1,2,3,4-tetrahydro-naphthalen-1-yl}-urea], the pIC50 in assay [1] and in assay [2] was > 8.00 each time.

For the molecule `CC(C)(C)c1cc(NC(=O)N[C@H]2CC[C@@H](Oc3ccc4nnc(-c5c(Cl)cccc5Cl)n4c3)c3ccccc32)n(CCN2CCOCC2)n1` [Example 27, 1-[5-tert-Butyl-2-(2-morpholin-4-yl-ethyl)-2H-pyrazol-3-yl]-3-{(1S,4R)-4-[3-(2,6-dichloro-phenyl)-[1,2,4]triazolo[4,3-a]pyridin-6-yloxy]-1,2,3,4-tetrahydro-naphthalen-1-yl}-urea formate salt], the pIC50 in assay [1] and in assay [2] was > 8.00 each time.

On to `CN(C)CCn1nc(C(C)(C)C)cc1NC(=O)N[C@H]1CC[C@@H](Oc2ccc3nnc(-c4c(Cl)cccc4Cl)n3c2)c2ccccc21` [Example 28, 1-[5-tert-Butyl-2-(2-dimethylamino-ethyl)-2H-pyrazol-3-yl]-3-{(1S,4R)-4-[3-(2,6-dichloro-phenyl)-[1,2,4]triazolo[4,3-a]pyridin-6-yloxy]-1,2,3,4-tetrahydro-naphthalen-1-yl}-urea formate salt], for which the pIC50 in assay [1] and in assay [2] was > 8.00 in each case.

For `CC(C)(C)c1cc(NC(=O)N[C@H]2CC[C@@H](Oc3ccc4nnc(-c5c(Cl)cccc5Cl)n4c3)c3ccccc32)n(CCN2CCCCC2)n1` [Example 29, 1-[5-tert-Butyl-2-(2-piperidin-1-yl-ethyl)-2H-pyrazol-3-yl]-3-{(1S,4R)-4-[3-(2,6-dichloro-phenyl)-[1,2,4]triazolo[4,3-a]pyridin-6-yloxy]-1,2,3,4-tetrahydro-naphthalen-1-yl}-urea formate salt], the pIC50 in assay [1] and in assay [2] was > 8.00 each time.

As to `CN1CCN(CCn2nc(C(C)(C)C)cc2NC(=O)N[C@H]2CC[C@@H](Oc3ccc4nnc(-c5c(Cl)cccc5Cl)n4c3)c3ccccc32)CC1` [Example 30, 1-{5-tert-Butyl-2-[2-(4-methyl-piperazin-1-yl)-ethyl]-2H-pyrazol-3-yl}-3-{(1S,4R)-4-[3-(2,6-dichloro-phenyl)-[1,2,4]triazolo[4,3-a]pyridin-6-yloxy]-1,2,3,4-tetrahydro-naphthalen-1-yl}-urea formate salt], the pIC50 in assay [1] and in assay [2] was > 8.00 in each case.

As to `CC(C)(C)c1cc(NC(=O)N[C@H]2CC[C@@H](Oc3ccc4nnc(-c5ccccc5Cl)n4c3)c3ccccc32)n(CCO)n1` [Example 31, 1-[5-tert-Butyl-2-(2-hydroxy-ethyl)-2H-pyrazol-3-yl]-3-{(1S,4R)-4-[3-(2-chloro-phenyl)-[1,2,4]triazolo[4,3-a]pyridin-6-yloxy]-1,2,3,4-tetrahydro-naphthalen-1-yl}-urea], the pIC50 in assay [1] and in assay [2] was > 8.00 throughout.

Consider `CC(C)(C)c1cc(NC(=O)N[C@H]2CC[C@@H](Oc3ccc4nnc(-c5ccccc5Cl)n4c3)c3ccccc32)n(CCN2CCOCC2)n1` [Example 32, 1-[5-tert-Butyl-2-(2-morpholin-4-yl-ethyl)-2H-pyrazol-3-yl]-3-{(1S,4R)-4-[3-(2-chloro-phenyl)-[1,2,4]triazolo[4,3-a]pyridin-6-yloxy]-1,2,3,4-tetrahydro-naphthalen-1-yl}-urea formate salt], for which the pIC50 in assay [1] and in assay [2] was > 8.00 throughout.

Regarding `Cn1nc(C(C)(C)C)cc1NC(=O)N[C@H]1CC[C@@H](Oc2ccc3nnc(-c4c(Cl)cccc4Cl)n3c2)c2ccccc21` [Example 33, 1-(5-tert-Butyl-2-methyl-2H-pyrazol-3-yl)-3-{(1S,4R)-4-[3-(2,6-dichlorophenyl)-[1,2,4]triazolo[4,3-a]pyridin-6-yloxy]-1,2,3,4-tetrahydronaphthalen-1-yl]-urea], the pIC50 in assay [1] and in assay [2] was > 8.00 throughout.

Take `CC(C)(C)c1cc(NC(=O)N[C@H]2CC[C@@H](Oc3ccc4nnc(C5CCCCC5)n4c3)c3ccccc32)n(CCN2CCOCC2)n1` [Example 34, 1-[5-tert-Butyl-2-(2-morpholin-4-yl-ethyl)-2H-pyrazol-3-yl]-3-[(1S,4R)-4-(3-cyclohexyl-[1,2,4]triazolo[4,3-a]pyridin-6-yloxy)-1,2,3,4-tetrahydro-naphthalen-1-yl]-urea partial formate salt]: the pIC50 in assay [1] and in assay [2] was > 8.00 in each case.
